The source of these data is PMC11078216, “Discovery of potent and selective activity-based probes (ABPs) for the deubiquitinating enzyme USP30” (RSC Chemical Biology, 2024).

Common to all, as to assay: ABPP chemical proteomics (LC-MS/MS) in HEK293T cells
Format in all cases: cell-based

The target in one test is T1, MALT1 (Homo sapiens, UniProt Q9UDY8).
T1 construct: endogenous in cells; host or cells: HEK293T
As to conditions: IMP-2586 labelling vs DMSO, 30 nM, 10 min, HEK293T (Table S4, Fig.5c). In short, it runs like this:
(§1)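 Proteome-wide selectivity was profiled by competitive ABPP. Cells received […] and then activity-based probe for 1 h at 37 °C. Lysates were ligated to biotin capture tags, affinity-enriched and analysed by mass spectrometry.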

The target of a further test is T2, CFAP20 (Homo sapiens, UniProt Q9Y6A4).
T2 construct: endogenous in cells; host or cells: HEK293T
As to conditions: IMP-2586 labelling vs DMSO, 30 nM, 10 min, HEK293T (Table S4, Fig.5c). The method in brief: as §1

For another test, the target named is T3, SMARCA4 (Homo sapiens, UniProt P51532).
T3 construct: endogenous in cells; host or cells: HEK293T
As to conditions: IMP-2586 labelling vs DMSO, 30 nM, 10 min, HEK293T (Table S4, Fig.5c). In short, it runs like this: as §1

The target in the next test is T4, SFT2D3 (Homo sapiens, UniProt Q587I9).
T4 construct: endogenous in cells; host or cells: HEK293T
As to conditions: IMP-2586 labelling vs DMSO, 30 nM, 10 min, HEK293T (Table S4, Fig.5c). In short, it runs like this:
as §1

A further test concerns the target T5, ASAH1 (Homo sapiens, UniProt Q13510).
T5 construct: endogenous in cells; host or cells: HEK293T
As to conditions: IMP-2586 labelling vs DMSO, 30 nM, 10 min, HEK293T (Table S4, Fig.5c). The method in brief: as §1

The next test has as its target T6, RPL27 (Homo sapiens, UniProt P61353).
T6 construct: endogenous in cells; host or cells: HEK293T
As to conditions: IMP-2586 labelling vs DMSO, 30 nM, 10 min, HEK293T (Table S4, Fig.5c). In short, it runs like this:
as §1

A further test has as its system CAV1. As to conditions: IMP-2586 labelling vs DMSO, 30 nM, 10 min, HEK293T (Table S4, Fig.5c). The method in brief: as §1
A further test has as its target T7, MDC1 (Homo sapiens, UniProt Q14676).
T7 construct: endogenous in cells; host or cells: HEK293T
As to conditions: IMP-2586 labelling vs DMSO, 30 nM, 10 min, HEK293T (Table S4, Fig.5c). In short, it runs like this: as §1

In the next test the target is T8, CNP (Homo sapiens, UniProt P09543).
T8 construct: endogenous in cells; host or cells: HEK293T
As to conditions: IMP-2586 labelling vs DMSO, 30 nM, 10 min, HEK293T (Table S4, Fig.5c). In short, it runs like this: as §1

A further test has as its system H2AFV;H2AFZ. As to conditions: IMP-2587 labelling vs DMSO, 30 nM, 10 min, HEK293T (Table S2, Fig.5a). In short, it runs like this: as §1
The target of a further test is T9, GET4 (Homo sapiens, UniProt Q7L5D6).
T9 construct: endogenous in cells; host or cells: HEK293T
As to conditions: IMP-2587 labelling vs DMSO, 30 nM, 10 min, HEK293T (Table S2, Fig.5a). The method in brief: as §1

The next test deals with T10, NPM3 (Homo sapiens, UniProt O75607).
T10 construct: endogenous in cells; host or cells: HEK293T
As to conditions: IMP-2587 labelling vs DMSO, 30 nM, 10 min, HEK293T (Table S2, Fig.5a). The method in brief: as §1

Another test deals with T11, NIT2 (Homo sapiens, UniProt Q9NQR4).
T11 construct: endogenous in cells; host or cells: HEK293T
As to conditions: IMP-2587 labelling vs DMSO, 30 nM, 10 min, HEK293T (Table S2, Fig.5a). In short, it runs like this: as §1

In the next test the target is T12, RPL34 (Homo sapiens, UniProt P49207).
T12 construct: endogenous in cells; host or cells: HEK293T
As to conditions: compound 1 out-competition with IMP-2587 labelling, HEK293T (Table S3, Fig.5b). The method in brief:
as §1

A further test addresses T13, LUC7L3 (Homo sapiens, UniProt O95232).
T13 construct: endogenous in cells; host or cells: HEK293T
As to conditions: compound 3 out-competition with IMP-2586 labelling, HEK293T (Table S5, Fig.5d). In short, it runs like this: as §1

T8 sequence (P09543 whole entry): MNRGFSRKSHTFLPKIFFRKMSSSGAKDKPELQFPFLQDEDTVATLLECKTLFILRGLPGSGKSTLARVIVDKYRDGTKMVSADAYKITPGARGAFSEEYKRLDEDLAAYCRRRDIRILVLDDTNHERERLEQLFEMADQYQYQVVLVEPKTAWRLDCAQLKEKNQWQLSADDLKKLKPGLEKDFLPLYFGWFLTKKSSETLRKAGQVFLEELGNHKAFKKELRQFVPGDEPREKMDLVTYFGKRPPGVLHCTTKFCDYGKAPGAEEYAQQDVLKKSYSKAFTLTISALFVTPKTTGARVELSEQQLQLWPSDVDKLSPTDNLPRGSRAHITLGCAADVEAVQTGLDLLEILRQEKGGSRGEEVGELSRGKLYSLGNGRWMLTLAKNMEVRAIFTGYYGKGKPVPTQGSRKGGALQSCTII
T1 sequence (Q9UDY8 whole entry): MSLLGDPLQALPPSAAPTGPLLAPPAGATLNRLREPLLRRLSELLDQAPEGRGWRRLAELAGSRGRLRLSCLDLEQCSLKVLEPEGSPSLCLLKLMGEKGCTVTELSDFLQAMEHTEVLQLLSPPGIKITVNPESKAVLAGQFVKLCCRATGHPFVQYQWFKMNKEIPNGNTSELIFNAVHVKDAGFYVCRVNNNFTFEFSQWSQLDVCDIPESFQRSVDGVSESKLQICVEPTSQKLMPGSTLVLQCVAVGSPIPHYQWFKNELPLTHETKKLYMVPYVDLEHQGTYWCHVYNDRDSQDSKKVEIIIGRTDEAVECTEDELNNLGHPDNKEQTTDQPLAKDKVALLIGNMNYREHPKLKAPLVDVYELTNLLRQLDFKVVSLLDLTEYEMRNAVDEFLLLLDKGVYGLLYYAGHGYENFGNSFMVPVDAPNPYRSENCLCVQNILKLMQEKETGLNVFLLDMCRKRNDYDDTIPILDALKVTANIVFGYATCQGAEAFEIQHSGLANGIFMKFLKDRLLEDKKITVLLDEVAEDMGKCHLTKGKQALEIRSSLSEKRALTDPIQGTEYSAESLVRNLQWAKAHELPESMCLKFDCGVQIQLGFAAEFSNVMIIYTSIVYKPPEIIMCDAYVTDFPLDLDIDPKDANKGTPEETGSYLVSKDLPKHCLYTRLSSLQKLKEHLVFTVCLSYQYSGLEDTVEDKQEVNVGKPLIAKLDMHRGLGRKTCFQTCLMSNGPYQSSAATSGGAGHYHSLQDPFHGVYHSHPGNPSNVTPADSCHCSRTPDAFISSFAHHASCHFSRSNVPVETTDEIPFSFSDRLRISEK
T13 sequence (O95232 whole entry): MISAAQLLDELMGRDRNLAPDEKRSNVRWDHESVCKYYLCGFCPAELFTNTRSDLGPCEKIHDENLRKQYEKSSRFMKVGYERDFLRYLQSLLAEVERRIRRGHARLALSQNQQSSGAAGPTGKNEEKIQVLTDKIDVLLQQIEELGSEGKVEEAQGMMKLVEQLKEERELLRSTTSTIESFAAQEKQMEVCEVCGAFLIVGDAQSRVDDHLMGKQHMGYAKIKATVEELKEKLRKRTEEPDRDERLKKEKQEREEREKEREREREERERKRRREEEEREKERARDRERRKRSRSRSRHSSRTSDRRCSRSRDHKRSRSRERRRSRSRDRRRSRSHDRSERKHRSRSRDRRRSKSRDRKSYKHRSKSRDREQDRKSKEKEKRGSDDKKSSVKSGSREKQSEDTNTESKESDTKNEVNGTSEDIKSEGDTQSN
T5 sequence (Q13510 22-395): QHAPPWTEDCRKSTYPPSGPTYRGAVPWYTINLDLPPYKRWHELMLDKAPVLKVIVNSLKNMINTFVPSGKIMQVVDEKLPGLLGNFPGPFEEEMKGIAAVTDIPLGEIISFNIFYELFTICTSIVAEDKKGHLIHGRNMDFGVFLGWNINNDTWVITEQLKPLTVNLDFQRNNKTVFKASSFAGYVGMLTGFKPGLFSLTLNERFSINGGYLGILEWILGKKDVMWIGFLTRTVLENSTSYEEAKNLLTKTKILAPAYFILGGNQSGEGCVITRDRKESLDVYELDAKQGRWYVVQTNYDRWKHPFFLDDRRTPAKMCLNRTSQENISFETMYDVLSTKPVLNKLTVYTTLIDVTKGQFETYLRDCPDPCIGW
T3 sequence (P51532 whole entry): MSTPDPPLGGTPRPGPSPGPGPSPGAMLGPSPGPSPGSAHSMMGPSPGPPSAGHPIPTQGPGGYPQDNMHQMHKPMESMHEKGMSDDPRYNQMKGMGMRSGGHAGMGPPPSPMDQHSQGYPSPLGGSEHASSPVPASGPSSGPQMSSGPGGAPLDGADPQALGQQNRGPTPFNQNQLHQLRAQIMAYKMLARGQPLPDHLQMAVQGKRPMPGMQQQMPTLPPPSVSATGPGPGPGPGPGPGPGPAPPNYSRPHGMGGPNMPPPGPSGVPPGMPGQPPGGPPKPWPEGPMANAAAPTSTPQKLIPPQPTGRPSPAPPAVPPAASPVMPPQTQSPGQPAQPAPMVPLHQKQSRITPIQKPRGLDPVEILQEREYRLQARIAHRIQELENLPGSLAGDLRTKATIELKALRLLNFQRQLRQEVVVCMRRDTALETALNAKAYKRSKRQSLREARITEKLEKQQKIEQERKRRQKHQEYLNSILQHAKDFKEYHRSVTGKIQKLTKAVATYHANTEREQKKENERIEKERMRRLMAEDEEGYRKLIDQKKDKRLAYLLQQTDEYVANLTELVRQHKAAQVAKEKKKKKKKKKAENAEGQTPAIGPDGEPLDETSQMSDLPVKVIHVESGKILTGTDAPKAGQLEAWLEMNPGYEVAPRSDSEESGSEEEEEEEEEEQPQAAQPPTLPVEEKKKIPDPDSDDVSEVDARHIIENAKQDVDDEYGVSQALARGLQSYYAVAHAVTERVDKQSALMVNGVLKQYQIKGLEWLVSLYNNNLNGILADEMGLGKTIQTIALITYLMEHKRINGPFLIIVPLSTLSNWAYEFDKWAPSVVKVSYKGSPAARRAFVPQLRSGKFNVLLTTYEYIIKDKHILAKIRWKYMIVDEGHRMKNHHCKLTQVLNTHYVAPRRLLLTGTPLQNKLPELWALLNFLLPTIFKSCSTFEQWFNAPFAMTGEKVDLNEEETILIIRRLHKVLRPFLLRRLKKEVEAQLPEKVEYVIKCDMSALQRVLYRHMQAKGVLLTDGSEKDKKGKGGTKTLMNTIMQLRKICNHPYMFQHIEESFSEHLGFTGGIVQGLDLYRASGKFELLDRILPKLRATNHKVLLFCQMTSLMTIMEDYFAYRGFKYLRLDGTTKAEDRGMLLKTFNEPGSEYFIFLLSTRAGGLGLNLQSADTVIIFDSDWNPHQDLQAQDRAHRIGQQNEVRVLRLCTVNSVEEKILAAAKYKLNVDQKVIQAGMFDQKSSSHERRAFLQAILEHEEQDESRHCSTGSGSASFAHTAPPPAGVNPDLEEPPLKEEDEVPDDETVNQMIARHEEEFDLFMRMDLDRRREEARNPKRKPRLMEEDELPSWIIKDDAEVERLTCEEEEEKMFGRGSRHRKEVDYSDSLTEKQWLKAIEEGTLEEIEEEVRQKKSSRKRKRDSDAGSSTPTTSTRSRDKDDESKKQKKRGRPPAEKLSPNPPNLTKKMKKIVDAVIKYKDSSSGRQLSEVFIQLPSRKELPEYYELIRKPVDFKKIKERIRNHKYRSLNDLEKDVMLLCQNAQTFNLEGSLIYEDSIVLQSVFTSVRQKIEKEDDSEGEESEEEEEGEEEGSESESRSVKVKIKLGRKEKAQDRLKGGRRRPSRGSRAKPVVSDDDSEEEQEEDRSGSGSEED
T11 sequence (Q9NQR4 whole entry): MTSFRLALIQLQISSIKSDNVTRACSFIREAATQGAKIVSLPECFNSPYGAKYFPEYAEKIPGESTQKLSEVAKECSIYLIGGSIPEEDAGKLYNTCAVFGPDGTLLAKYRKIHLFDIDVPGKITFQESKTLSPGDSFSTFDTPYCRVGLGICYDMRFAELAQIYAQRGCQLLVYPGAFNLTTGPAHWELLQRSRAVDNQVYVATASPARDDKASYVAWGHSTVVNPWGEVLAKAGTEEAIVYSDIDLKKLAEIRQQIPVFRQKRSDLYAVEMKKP
T2 sequence (Q9Y6A4 whole entry): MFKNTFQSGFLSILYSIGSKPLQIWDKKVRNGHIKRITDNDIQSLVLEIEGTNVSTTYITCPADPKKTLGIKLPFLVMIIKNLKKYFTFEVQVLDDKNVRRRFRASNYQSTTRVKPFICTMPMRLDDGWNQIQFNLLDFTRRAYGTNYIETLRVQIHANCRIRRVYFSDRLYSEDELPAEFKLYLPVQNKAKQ
T10 sequence (O75607 whole entry): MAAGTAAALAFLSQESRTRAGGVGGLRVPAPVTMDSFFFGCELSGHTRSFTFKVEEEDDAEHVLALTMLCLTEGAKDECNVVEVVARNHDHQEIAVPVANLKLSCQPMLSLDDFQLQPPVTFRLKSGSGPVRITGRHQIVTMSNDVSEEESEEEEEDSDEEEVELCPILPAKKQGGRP
T9 sequence (Q7L5D6 whole entry): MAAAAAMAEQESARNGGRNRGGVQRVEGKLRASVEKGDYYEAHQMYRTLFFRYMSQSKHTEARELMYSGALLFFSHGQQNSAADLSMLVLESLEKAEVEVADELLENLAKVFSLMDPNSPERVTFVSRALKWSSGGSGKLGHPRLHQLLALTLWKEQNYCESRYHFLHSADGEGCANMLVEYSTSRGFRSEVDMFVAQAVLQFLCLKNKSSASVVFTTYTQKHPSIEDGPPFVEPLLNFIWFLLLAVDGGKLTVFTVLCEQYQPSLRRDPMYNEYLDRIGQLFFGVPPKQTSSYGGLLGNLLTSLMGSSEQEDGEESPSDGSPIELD
T4 sequence (Q587I9 whole entry): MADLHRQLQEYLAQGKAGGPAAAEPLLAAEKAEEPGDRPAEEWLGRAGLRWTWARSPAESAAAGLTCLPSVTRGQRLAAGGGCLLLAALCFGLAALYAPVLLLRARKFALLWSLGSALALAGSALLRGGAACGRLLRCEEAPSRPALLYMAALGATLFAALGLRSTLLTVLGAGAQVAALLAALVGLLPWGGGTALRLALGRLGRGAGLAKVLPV

Take `N#CN1CC[C@@H](NC(=O)c2cc(-c3ccccc3Oc3ccc(N=[N+]=[N-])cc3)n[nH]2)C1` [IMP-2586]: the “Difference (log2 fold change of enrichment)” value on MALT1 is reported as 0.75; on CFAP20 it was -0.41; at SMARCA4, 0.52; on SFT2D3, -1.51; at ASAH1 it was 1.08; at RPL27, -0.76. The “Difference (log2 fold change of enrichment)” value was -2.47 in the test with CAV1 (CAV1 (Caveolin)), -1.61 with CAV1 (CAV1 (Caveolin-1)), 0.38 on MDC1 and -0.68 at CNP.
On to `C#Cc1cccc(-c2cc(NC(=O)CC3CCN(C#N)C3)on2)c1` (stereo not shown) [IMP-2587], for which the “Difference (log2 fold change of enrichment)” value came out at 0.65 in the test with H2AFV;H2AFZ, 0.76 on GET4, 0.89 on NPM3 and 0.61 on NIT2.
In the case of `N#CN1CC[C@H](CC(=O)Nc2cc(-c3cccc(Cl)c3)no2)C1` [compound 1, reference compound], the “Difference (log2 fold change of enrichment)” value at RPL34 was -0.67.
Regarding `N#CN1CC[C@@H](NC(=O)c2cc(-c3ccccc3Oc3ccccc3)n[nH]2)C1` [compound 3, reference compound], the “Difference (log2 fold change of enrichment)” value on LUC7L3 is recorded as -0.51.
